Patent US8318749B2, “Quinazoline derivatives as NK3 receptor antagonists” (Hoffmann-La Roche Inc., priority 2008, dated 2012)

Tests used:
[1] = target: T1, recombinant human NK3 receptor (Homo sapiens, UniProt P29371); experiment: [3H]SR142801 competition binding assay; settings: membrane from HEK293 cells transiently expressing recombinant human NK3 receptor; radioligand [3H]SR142801; 75 min at RT
T1 construct: expressed in transfected cells; host or cells: HEK293 cells (transient expression), membrane preparation
T1 sequence (P29371 1-465): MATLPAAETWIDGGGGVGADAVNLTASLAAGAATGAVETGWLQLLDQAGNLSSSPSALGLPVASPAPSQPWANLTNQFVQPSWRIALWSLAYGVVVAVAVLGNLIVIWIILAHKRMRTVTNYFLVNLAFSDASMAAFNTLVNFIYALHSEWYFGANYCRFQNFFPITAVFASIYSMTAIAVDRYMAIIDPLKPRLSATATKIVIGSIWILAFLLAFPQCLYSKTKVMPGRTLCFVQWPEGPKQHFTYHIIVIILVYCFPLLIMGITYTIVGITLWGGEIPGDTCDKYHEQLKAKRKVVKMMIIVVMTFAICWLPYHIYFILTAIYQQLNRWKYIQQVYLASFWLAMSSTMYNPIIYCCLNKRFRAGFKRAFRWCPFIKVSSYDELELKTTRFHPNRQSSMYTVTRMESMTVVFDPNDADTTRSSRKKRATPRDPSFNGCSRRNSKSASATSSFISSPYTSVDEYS
Experimental: [^3H]SR142801 Competition Binding Assay
hNK3 receptor binding experiment were performed using [^3H]SR142801 (Catalog No. TRK1035, specific activity: 74.0 Ci/mmol, Amersham, GE Healthcare UK limited, Buckinghamshire, UK) and membrane isolated from HEK293 cells transiently expressing recombinant human NK3 receptor. After thawing, the membrane homogenates were centrifuged at 48,000×g for 10 min at 4° C., the pellets were resuspended in the 50 mM Tris-HCl, 4 mM MnCl2, 1 μM phosphoramidon, 0.1% BSA binding buffer at pH 7.4 to a final assay concentration of 5 μg protein/well. […] At the end of the incubation, membranes were filtered onto unitfilter (96-well white microplate with bonded GF/C filter preincubated 1 h in 0.3% PEI+0.3% BSA, Packard BioScience, Meriden, Conn.) with a Filtermate 196 harvester (Packard BioScience) and washed 4 times with ice-cold 50 mM Tris-HCl, pH 7.4 buffer. Nonspecific binding was measured in the presence of 10 μM SB222200 for both radioligands. The radioactivity on the filter was counted (5 min) on a Packard Top-count microplate scintillation counter with quenching correction after addition of 45 μl of microscint 40 (Canberra Packard S.A., Zürich, Switzerland) and shaking for 1 h. Inhibition curves were fitted according to the Hill equation: y=100/(1+(x/IC50)^nH), where nH=slope factor using Excel-fit 4 software (Microsoft). IC50 values were derived from the inhibition curve and the affinity constant (Ki) values were calculated using the Cheng-Prussoff equation Ki=IC50/(1+[L]/KD) where [L] is the concentration of radioligand and KD is its dissociation constant at the receptor, derived from the saturation isotherm. All experiments were performed in duplicate and the mean±standard error (SEM) of the individual Ki values was calculated.

[2] = phase II trial, cited from earlier work

SMILES	Ki [1] [nM]	activity on positive symptoms of schizophrenia ([2]; altered behaviour, delusion, hallucinations, extreme emotions, excited motor activity, incoherent speech)	activity in the treatment of negative symptoms ([2]; depression, anhedonia, social isolation or memory and attention deficits)
O=C(NCc1ccccc1)C1(Cc2ccccc2)CCN(c2nc(O)c3ccc(OC(F)(F)F)cc3n2)CC1 [Example 99, 4-Benzyl-1-(4-hydroxy-7-trifluoromethoxy-quinazolin-2-yl)-piperidine-4-carboxylic acid benzylamide]	4.9	–	–
CC(=O)N(C)C1(c2ccccc2)CCN(CCC[C@]2(c3ccc(Cl)c(Cl)c3)CCCN(C(=O)c3ccccc3)C2)CC1 [SR 142,801, Osanetant]	–	active	inactive
